{
  "source": "patent US20110223222A1",
  "about": "“Antiperspirant Compositions and Methods for Reducing Perspiration in Humans” (priority 2008, published 2011)",
  "key": {"[1]": {"test_system": "axillae of healthy female volunteers", "assay": "Antiperspirant efficacy, FDA hotroom protocol, gravimetric sweat collection", "format": "in vivo, human", "details": "after four days of once-daily topical treatment, D4 vs D1 baseline", "procedure": "The antiperspirant efficacy and safety of investigated compounds were tested pursuant to protocol prescribed by the Food and Drug Administration, […] (Guidelines for Effectiveness Testing of OTC Antiperspirant Drug Products, 2004). The clinical study further conformed to Normative Resolution 196/96, CN/MS. The clinical study was divided into three tests and conducted with among at least thirty healthy female volunteers per test. They were between the ages of 18 and 50. The study was single-center, randomized, controlled, double blind assessment of the safety, tolerability and antiperspirant efficacy of TRPM8 agonists when applied to the axillae of healthy female volunteers. Before proceeding with the testing, all the volunteers were submitted to a “rest period” of 17 days, according to the FDA protocol. During this period, a placebo control formulation with no antiperspirancy effect was applied twice a day to both axillae. Treatments were applied once daily for four consecutive days (numbered D1 to D4). On D1, the baseline perspiration rate was determined before the antiperspirant formulations were applied. All the volunteers remained under hotroom conditions for a 40-minute warm-up period, divided into 2 periods of 20 minutes each. The term “hotroom condition” is the controlled environment (temperatures at 38° C.±1° C., and relative humidity of 35%±5%) established by the FDA standard protocol to thermally induce volunteer's perspiration. Cotton absorbent pads (Sussex®) were preweighed (P1) and placed in both axillae of each volunteer. At the end of the warm-up period, the perspiration collected on the absorbent pads was again weighed (P2) and the perspiration rates were obtained through gravimetric measurements (according to the formula P2-P1). According to FDA protocol, volunteers must produce at least 100 milligrams of sweat from the placebo control axilla in a 20-minute collection in the controlled environment, and at least one volunteer must produce more than 600 milligrams of sweat. Commercial menthol (YSC), Mentha essential oil (YSC) and Eucalyptus essential oil (Inter-Link) were presented as components of the antiperspirant formulations as described in the Example 1. Both commercial Mentha and Eucalyptus essential oils, which present menthol and eucalyptol, respectively, as the major components, were submitted to a GC-MS analysis in order to determine the appropriate amount of essential oils to be used to manufacture the antiperspirant compositions. In each treatment group as listed below, one of the antiperspirant formulations were applied to one axilla of the volunteers. […] Safety and tolerance were measured by assessment of visual effects and dermal irritancy, and subjective assessment of tolerance. […]"}, "[2]": {"test_system": "axilla odor of volunteers", "assay": "Evaluation of deodorant effect (sniff test)", "format": "in vivo, human", "details": "at D4 vs D1, odor score 0-10 by two trained judges", "procedure": "The volunteers were submitted to a “rest period” as described previously in Example 2. The odor was evaluated for the volunteers at D1 and at D4. At D1 the evaluation was made before the application of the test formulations, after the 20-minute warm-up period, and only the volunteers with starting values not less than 2 were included in the test. The odor evaluation scoring system was based on a range of axilla odor from no malodor (0), to moderate malodor (5), to extremely strong malodor (10). Two trained judges, familiar with the procedures and rating system, subjectively made the odor measurements of both axillae of each volunteer. The data correspond to the individual subject scores by the two trained judges and to the individual average."}},
  "data": [
    {"molecule": "CC1CCC(C(C)C)C(O)C1", "note": "(centres unmarked) [menthol]", "values": [
      {"measurement": "reduction in sweat production", "setting": "[1]; Group 1, one hour after application", "result": "61.4%±23.1"},
      {"measurement": "reduction in sweat production", "setting": "[1]; Group 2, two hours after application", "result": "63.7%±21.8"},
      {"measurement": "reduction in sweat production", "setting": "[1]; Group 3, four hours after application", "result": "63.7%±21.8"},
      {"measurement": "reduction in sweat production", "setting": "[1]; Group 3, four hours after application, listed as menthol (YSC)", "result": "75%±12.1"},
      {"measurement": "improvement in axilla odor", "setting": "[2]", "result": "6.4%±25.3"}
    ]}
  ]
}
